Measurements as given in PubChem BioAssay AID1963958 (Molecular Pharmacology Branch, DTP, NCI, 2024).

System: MDA-MB-231 multicell spheroids, viability
Assay: Anticancer human tumor MDA-MB-231 cell line growth inhibition [PI3K];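 further: spheroids exposed to agents for seven days before reading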;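 on viability, T/C: percent of vehicle control luminescence with DMSO treated spheroids as 100%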
Settings: for viability, T/C: stronger effect = lower value; active means viability on the fitted dose curve at most 10% of control; inactive means the rest
Outline: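 Agents were dosed from a top concentration near clinical Cmax (otherwise 10 microM) in half-log decrements, alone or combined with PI3K inhibitors. The spheroids contain tumor cells plus endothelial (HUVEC) and MSC stroma; viability is measured.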

[1] = curve of first compound, second compound 0.0316 µM
[2] = curve of first compound, second compound 0.1 µM
[3] = curve of first compound, second compound 0.316 µM
[4] = curve of first compound, second compound 1 µM
[5] = curve of first compound, second compound 3.16 µM
[6] = curve of first compound, second compound 10 µM
[7] = second compound 0.0316 µM, first compound 0.0316 µM
[8] = second compound 0.0316 µM, first compound 0.1 µM
[9] = second compound 0.0316 µM, first compound 0.316 µM
[10] = second compound 0.0316 µM, first compound 1 µM
[11] = second compound 0.0316 µM, first compound 3.16 µM
[12] = second compound 0.0316 µM, first compound 10 µM
[13] = second compound 0.1 µM, first compound 0.0316 µM
[14] = second compound 0.1 µM, first compound 0.1 µM
[15] = second compound 0.1 µM, first compound 0.316 µM
[16] = second compound 0.1 µM, first compound 1 µM
[17] = second compound 0.1 µM, first compound 3.16 µM
[18] = second compound 0.1 µM, first compound 10 µM
[19] = second compound 0.316 µM, first compound 0.0316 µM
[20] = second compound 0.316 µM, first compound 0.1 µM
[21] = second compound 0.316 µM, first compound 0.316 µM
[22] = second compound 0.316 µM, first compound 1 µM
[23] = second compound 0.316 µM, first compound 3.16 µM
[24] = second compound 0.316 µM, first compound 10 µM
[25] = second compound 1 µM, first compound 0.0316 µM
[26] = second compound 1 µM, first compound 0.1 µM
[27] = second compound 1 µM, first compound 0.316 µM
[28] = second compound 1 µM, first compound 1 µM
[29] = second compound 1 µM, first compound 3.16 µM
[30] = second compound 1 µM, first compound 10 µM
[31] = second compound 3.16 µM, first compound 0.0316 µM
[32] = second compound 3.16 µM, first compound 0.1 µM
[33] = second compound 3.16 µM, first compound 0.316 µM
[34] = second compound 3.16 µM, first compound 1 µM
[35] = second compound 3.16 µM, first compound 3.16 µM
[36] = second compound 3.16 µM, first compound 10 µM
[37] = second compound 10 µM, first compound 0.0316 µM
[38] = second compound 10 µM, first compound 0.1 µM
[39] = second compound 10 µM, first compound 0.316 µM
[40] = second compound 10 µM, first compound 1 µM
[41] = second compound 10 µM, first compound 3.16 µM
[42] = second compound 10 µM, first compound 10 µM

C[C@@H](NC(=O)c1ncnc(N)c1Cl)c1ncc(C(=O)Nc2cc(C(F)(F)F)c(Cl)cn2)s1 + CC(Nc1ncnc2nc[nH]c12)c1cc2cccc(Cl)c2c(=O)n1-c1ccccc1
inactive: viability, T/C [7] 142% | viability, T/C [8] 120% | viability, T/C [9] 110% | viability, T/C [10] 85.6% | viability, T/C [11] 75.6% | viability, T/C [12] 62.6% | viability, T/C [13] 140% | viability, T/C [14] 119% | viability, T/C [15] 106% | viability, T/C [16] 89.9% | viability, T/C [17] 72.7% | viability, T/C [18] 62.4% | viability, T/C [19] 125% | viability, T/C [20] 124% | viability, T/C [21] 106% | viability, T/C [22] 80.5% | viability, T/C [23] 68% | viability, T/C [24] 55.9% | viability, T/C [25] 114% | viability, T/C [26] 101% | viability, T/C [27] 79.1% | viability, T/C [28] 73.8% | viability, T/C [29] 60.1% | viability, T/C [30] 46.8% | viability, T/C [31] 95.5% | viability, T/C [32] 79.5% | viability, T/C [33] 60.6% | viability, T/C [34] 51.7% | viability, T/C [35] 47.7% | viability, T/C [36] 37.3% | viability, T/C [37] 72% | viability, T/C [38] 58.6% | viability, T/C [39] 47.8% | viability, T/C [40] 45.5% | viability, T/C [41] 33.6% | viability, T/C [42] 26.1%
> 10000 nM: IC50 [1] | IC50 [2] | IC50 [3]
334 nM: IC50 [6]
8160 nM: IC50 [4]
1380 nM: IC50 [5]

C#Cc1c(F)ccc2cc(O)cc(-c3ncc4c(N5CC6CCC(C5)N6)nc(OCC56CCCN5CC(F)C6)nc4c3F)c12 (stereo unspecified)
> 10000 nM: IC50 (curve of compound)
inactive: viability, T/C (compound 0.0316 µM) 110% [middle of 4 runs] | viability, T/C (compound 0.1 µM) 104% [middle of 4 runs] | viability, T/C (compound 0.316 µM) 100% [middle of 4 runs] | viability, T/C (compound 1 µM) 98.5% [middle of 4 runs] | viability, T/C (compound 10 µM) 59.5% [middle of 4 runs]

Cn1ncc(Cl)c1-c1cc(C(=O)NC(CN)Cc2cccc(F)c2)sc1Cl (stereo unspecified) + CC(Nc1ncnc2nc[nH]c12)c1cc2cccc(Cl)c2c(=O)n1-c1ccccc1
3590 nM: IC50 [2]
1050 nM: IC50 [5]
2610 nM: IC50 [3]
< 31.6 nM: IC50 [6]
2190 nM: IC50 [4]
inactive: viability, T/C [7] 100% | viability, T/C [8] 96.4% | viability, T/C [9] 84.6% | viability, T/C [10] 74.9% | viability, T/C [11] 55% | viability, T/C [12] 27.8% | viability, T/C [13] 103% | viability, T/C [14] 97.7% | viability, T/C [15] 95.4% | viability, T/C [16] 75.4% | viability, T/C [17] 53.3% | viability, T/C [18] 29.2% | viability, T/C [19] 93.1% | viability, T/C [20] 97.6% | viability, T/C [21] 84.9% | viability, T/C [22] 65.2% | viability, T/C [23] 48.9% | viability, T/C [24] 27.5% | viability, T/C [25] 77.5% | viability, T/C [26] 80.5% | viability, T/C [27] 69.5% | viability, T/C [28] 64% | viability, T/C [29] 43.6% | viability, T/C [30] 23.4% | viability, T/C [31] 63.6% | viability, T/C [32] 62.2% | viability, T/C [33] 57% | viability, T/C [34] 51.9% | viability, T/C [35] 36.3% | viability, T/C [36] 22% | viability, T/C [37] 45.3% | viability, T/C [38] 45% | viability, T/C [39] 47.5% | viability, T/C [40] 43.2% | viability, T/C [41] 29.1% | viability, T/C [42] 20.9%
3880 nM: IC50 [1]

Cn1ncc(Cl)c1-c1cc(C(=O)NC(CN)Cc2cccc(F)c2)sc1Cl (stereo unspecified) + CC(Nc1ccc2c(c1)OCCn1cc(N3C(=O)OCC3C(F)F)nc1-2)C(N)=O
665 nM: IC50 [4]
1540 nM: IC50 [1]
1180 nM: IC50 [3]
2720 nM: IC50 (curve of first compound, second compound 0.00316 µM)
inactive: viability, T/C (second compound 0.00316 µM, first compound 0.0316 µM) 95.7% | viability, T/C (second compound 0.00316 µM, first compound 0.1 µM) 94.2% | viability, T/C (second compound 0.00316 µM, first compound 0.316 µM) 91.2% | viability, T/C (second compound 0.00316 µM, first compound 1 µM) 73.4% | viability, T/C (second compound 0.00316 µM, first compound 3.16 µM) 46.9% | viability, T/C (second compound 0.00316 µM, first compound 10 µM) 25.3% | viability, T/C (second compound 0.01 µM, first compound 0.0316 µM) 91.5% | viability, T/C (second compound 0.01 µM, first compound 0.1 µM) 95.2% | viability, T/C (second compound 0.01 µM, first compound 0.316 µM) 80.7% | viability, T/C (second compound 0.01 µM, first compound 1 µM) 70.5% | viability, T/C (second compound 0.01 µM, first compound 3.16 µM) 45.9% | viability, T/C (second compound 0.01 µM, first compound 10 µM) 22.8% | viability, T/C [7] 76.4% | viability, T/C [8] 75.2% | viability, T/C [9] 70.1% | viability, T/C [10] 58.3% | viability, T/C [11] 36.6% | viability, T/C [12] 24.1% | viability, T/C [13] 71.4% | viability, T/C [14] 68.8% | viability, T/C [15] 62.9% | viability, T/C [16] 55.6% | viability, T/C [17] 34.5% | viability, T/C [18] 22% | viability, T/C [19] 66.4% | viability, T/C [20] 59.7% | viability, T/C [21] 59.7% | viability, T/C [22] 53.4% | viability, T/C [23] 36.8% | viability, T/C [24] 21% | viability, T/C [25] 58.9% | viability, T/C [26] 56.9% | viability, T/C [27] 55.1% | viability, T/C [28] 46.8% | viability, T/C [29] 36.9% | viability, T/C [30] 18.9%
1260 nM: IC50 [2]
2610 nM: IC50 (curve of first compound, second compound 0.01 µM)

C#Cc1c(F)ccc2cc(O)cc(-c3ncc4c(N5CC6CCC(C5)N6)nc(OCC56CCCN5CC(F)C6)nc4c3F)c12 (stereo unspecified) + Cc1nc(NC(=O)N2CCCC2C(N)=O)sc1-c1ccnc(C(C)(C)C(F)(F)F)c1
230 nM: IC50 [6]
> 10000 nM: IC50 [1]
1700 nM: IC50 [4]
7620 nM: IC50 [2]
5670 nM: IC50 [3]
inactive: viability, T/C [7] 106% | viability, T/C [8] 96% | viability, T/C [9] 101% | viability, T/C [10] 68.3% | viability, T/C [11] 75.6% | viability, T/C [12] 54.9% | viability, T/C [13] 88.8% | viability, T/C [14] 87.6% | viability, T/C [15] 85.4% | viability, T/C [16] 73% | viability, T/C [17] 65.5% | viability, T/C [18] 45.2% | viability, T/C [19] 77.7% | viability, T/C [20] 82.8% | viability, T/C [21] 69.4% | viability, T/C [22] 60.4% | viability, T/C [23] 62% | viability, T/C [24] 42% | viability, T/C [25] 74.1% | viability, T/C [26] 69.8% | viability, T/C [27] 67.3% | viability, T/C [28] 55.2% | viability, T/C [29] 43.3% | viability, T/C [30] 33.3% | viability, T/C [31] 69.6% | viability, T/C [32] 65.5% | viability, T/C [33] 53.4% | viability, T/C [34] 49.6% | viability, T/C [35] 42% | viability, T/C [36] 28% | viability, T/C [37] 64.2% | viability, T/C [38] 58.4% | viability, T/C [39] 45.3% | viability, T/C [40] 36.9% | viability, T/C [41] 32% | viability, T/C [42] 18.1%
847 nM: IC50 [5]

CC(Cn1ccc(-c2ccc(C#N)c(Cl)c2)n1)NC(=O)c1cc(C(C)O)[nH]n1 (stereo unspecified) + Cc1nc(NC(=O)N2CCCC2C(N)=O)sc1-c1ccnc(C(C)(C)C(F)(F)F)c1
inactive: viability, T/C [7] 92.9% | viability, T/C [8] 88.3% | viability, T/C [9] 98.9% | viability, T/C [10] 93.5% | viability, T/C [11] 86.4% | viability, T/C [12] 83.3% | viability, T/C [13] 86.8% | viability, T/C [14] 78.8% | viability, T/C [15] 87% | viability, T/C [16] 89.3% | viability, T/C [17] 86.2% | viability, T/C [18] 74.5% | viability, T/C [19] 73.2% | viability, T/C [20] 71.6% | viability, T/C [21] 77.4% | viability, T/C [22] 72.5% | viability, T/C [23] 68.2% | viability, T/C [24] 64.8% | viability, T/C [25] 68.6% | viability, T/C [26] 70.9% | viability, T/C [27] 67.1% | viability, T/C [28] 72.3% | viability, T/C [29] 66.6% | viability, T/C [30] 59.8% | viability, T/C [31] 68.4% | viability, T/C [32] 67.3% | viability, T/C [33] 68.7% | viability, T/C [34] 64.6% | viability, T/C [35] 61.9% | viability, T/C [36] 56.6% | viability, T/C [37] 68.3% | viability, T/C [38] 58% | viability, T/C [39] 60.3% | viability, T/C [40] 64.2% | viability, T/C [41] 62.8% | viability, T/C [42] 49.8%
> 10000 nM: IC50 [1] | IC50 [2] | IC50 [3] | IC50 [4] | IC50 [5] | IC50 [6]
